Measured values as given in patent publication US20110105397A1, “METHOD FOR TREATING HEART FAILURE WITH STRESSCOPIN-LIKE PEPTIDES” (priority 2009, published 2011).

How the values were obtained:
healthy subjects = experiment: Human hemodynamics (impedance cardiography), healthy subjects, 7.5-hour ascending dose IV infusion; type: in vivo; conditions: for Heart Rate Change from Baseline / Heart Rate Percent Change from Baseline: post hoc analysis
Method: Efficacy was based on the pharmacodynamic evaluation of hemodynamics, which was monitored using the noninvasive technique of impedance cardiography. Heart rate values were collected by impedance cardiography measurements. It was noted that the heart rate of subjects receiving placebo were elevated on the day of their infusions, at baseline before the infusion, and for the first 3 to 4 hours after the infusions were started (FIG. 17). Based on this observation, it appeared that there was a potential effect of period on the observed heart rate.
A mixed-effect model with baseline as covariate, period and dose group (≦3 ng/kg/min−low, >3 to ≦36 ng/kg/min−mid, >36 ng/kg/min−high) as fixed effects, and a random subject effect was established using the heart rate change from baseline in healthy subjects.
To confirm that the statistically significant increase in heart rate is caused by the high dose group, a similar mixed-effect model that excluded the high dose level (>36 ng/kg/min) group was built up.
A post hoc graphical analysis of the hemodynamic data was done to adjust for the elevated baseline values seen just before onset of the infusion, to obtain the best estimate of each hemodynamic parameter, and to correct for the effect of period. A post hoc graphic presentation was prepared from the complete (high frequency) dataset. This dataset contains the raw data that were further processed by the vendor (ie, CardioDynamics) and reported only at specific time points.
In this post hoc analysis an extended baseline was used for each value that included all values recorded before initiation of the infusion. Then an average value for each parameter was obtained from the last 30 minutes of each 2.5 hour infusion and was used as the effect in that period of the infused dose. Each value was modified for the effect of period of infusion by subtracting the mean change from baseline seen in placebo subjects dosed in that same period (placebo subtraction). The dose effect was estimated by averaging the values from all subjects who received the same dose after the placebo subtraction.

in vivo = conditions: mongrel, dog, iv, [SEQ ID NO: 1] plasma concentration
Method: A sandwich immunoassay was developed using an affinity purified goat polyclonal antibody, specific to h-SCP that was pre-coated onto a microplate with integrated electrodes. h-SCP molecules present in the sample will bind to the capture polyclonal antibody coated on the plate. After washing away any unbound substances, a sulfo-tagged mouse monoclonal anti-h-SCP antibody was added. This conjugated antibody will bind to the h-SCP molecules captured on the microplate and the quantity of analyte was determined by electrochemiluminescence. The amount of signal generated is directly proportional to the h-SCP concentration in the sample or standard. The standard curve range is 3.125-1600 pg/mL with a quantifiable range from 10-800 pg/mL. A sample volume of 25 μL (in duplicate) is required for this assay. This immunoassay is specific for human and dog stresscopin and human urocortin III (h-UCN3). […] After completion of the analysis, based on a comparison of reference standards between the ELISA and HPLC method, a correction factor of 1.57 was applied to all bioanalytical data.
The effects of h-SCP (SEQ ID NO:1) on cardiovascular function were also assessed in anaesthetized dogs with advanced, irreversible heart failure of ischemic etiology (Sabbah et al., 1991, Am. J. Physiol., vol. 260, pp. H1379-H1384; Sabbah et al., 1994, Circulation, vol. 98, pp. 2852-2859; Chandler et al., 2002, Circ. Res., vol. 91, pp. 278-280). Progressive, advanced heart failure was produced in mongrel dogs by multiple sequential intracoronary microembolization with polystyrene latex microspheres. Dose infusions of 2.2, 4.3, and 7.3 ng/kg/min were administered intravenously over 60 minutes just following or just prior to hemodynamic, angiographic, echocardiographic, and Doppler measurements using conventional hemodynamic, angiographic, echocardiographic, and radiographic methods. The h-SCP polypeptide (SEQ ID NO:1) produced dose- (infusion-) dependent increases in LVEF and SV and decreases in left ventricular end diastolic pressure (LVEDP), left ventricular pressure during isovolumic relaxation (LV-dP/dt), systemic vascular resistance (SVR), and left ventricular end-systolic volume (LVESV) that correlated with plasma concentration. No significant change in heart rate, peak systolic aortic blood pressure, LV+dP/dt, mean pulmonary artery pressure, mean pulmonary artery wedge pressure, right atrial pressure, or myocardial oxygen consumption were recorded following any of the 1 hour intravenous infusions (Table 18 and FIGS. 12 A & B). The improvement in LV systolic and diastolic function was not associated with the development of de novo ventricular arrhythmias.
In order to determine the threshold effective dose-infusion in dogs with advanced heart failure, a further study was performed at lower dose infusions. In addition, the opportunity was taken to explore whether the increase in LVEF produced by higher dose-infusions of 4.3 ng/kg/min would remain stable over a longer infusion period, i.e. 120 minutes.

male dogs = experiment: GLP cardiovascular safety study in male dogs; type: in vivo, dog
Method: The NOAEL of 33.3 ng/kg/min was determined in a GLP cardiovascular safety study in male dogs, which is considered to be the most relevant and sensitive species for cardiovascular drugs.
A NOAEL of 33.3 ng/kg/min was determined in a GLP cardiovascular safety study in male dogs, which is considered to be the most relevant and sensitive species for cardiovascular drugs. […] Based on these values a starting dose of 0.1 ng/kg/min was selected.

For “H-TKFTLSLDVPTNIMNLLFNIAKAKNLRAQAAANAHLMAQI-NH2 [SEQ ID NO: 1, TKFTLSLDVPTNIMNLLFNIAKAKNLRAQAAANAHLMAQI-NH2]”, the “cardiac output or cardiac index” value (healthy subjects; all doses ≦36 ng/kg/min) was “no change in cardiac output or cardiac index”, the “heart rate compared with baseline” value (healthy subjects; doses less than 36 ng/kg/min) was “no notable increase in heart rate compared with baseline” and the “increase in heart rate from baseline” value (healthy subjects; doses of 72 ng/kg/min and higher, end of 2.5-hour infusion period) was roughly 30 bpm. For the same substance, the “Heart Rate Change from Baseline” value (healthy subjects; infusion rate 0.1 ng/kg/min) was −2.8 bpm, the “Heart Rate Percent Change from Baseline” value (healthy subjects; infusion rate 0.1 ng/kg/min) was −4.6% and the “Heart Rate Change from Baseline” value (healthy subjects; infusion rate 0.3 ng/kg/min) was −0.4 bpm. The “Heart Rate Percent Change from Baseline” value (healthy subjects; infusion rate 0.3 ng/kg/min) was −0.2%, the “Heart Rate Change from Baseline” value (healthy subjects; infusion rate 1 ng/kg/min) was −2.0 bpm and the “Heart Rate Percent Change from Baseline” value (healthy subjects; infusion rate 1 ng/kg/min) was −3.3%. For the same substance, the “Heart Rate Change from Baseline” value (healthy subjects; infusion rate 3 ng/kg/min) was 1.3 bpm, the “Heart Rate Percent Change from Baseline” value (healthy subjects; infusion rate 3 ng/kg/min) was 2.6% and the “Heart Rate Change from Baseline” value (healthy subjects; infusion rate 9 ng/kg/min) was 0.1 bpm. For the same substance, the “Heart Rate Percent Change from Baseline” value (healthy subjects; infusion rate 9 ng/kg/min) was 0.6%, the “Heart Rate Change from Baseline” value (healthy subjects; infusion rate 18 ng/kg/min) was 2.1 bpm and the “Heart Rate Percent Change from Baseline” value (healthy subjects; infusion rate 18 ng/kg/min) was 3.9%. For the same substance, the “Heart Rate Change from Baseline” value (healthy subjects; infusion rate 36 ng/kg/min) was 5.2 bpm, the “Heart Rate Percent Change from Baseline” value (healthy subjects; infusion rate 36 ng/kg/min) was 9.4% and the “Heart Rate Change from Baseline” value (healthy subjects; infusion rate 54 ng/kg/min) was 12.7 bpm. The “Heart Rate Percent Change from Baseline” value (healthy subjects; infusion rate 54 ng/kg/min) was 20.5%, the “Heart Rate Change from Baseline” value (healthy subjects; infusion rate 72 ng/kg/min) was 18.1 bpm and the “Heart Rate Percent Change from Baseline” value (healthy subjects; infusion rate 72 ng/kg/min) was 30.3%. The “Heart Rate Change from Baseline” value (healthy subjects; infusion rate 108 ng/kg/min) was 20.9 bpm, the “Heart Rate Percent Change from Baseline” value (healthy subjects; infusion rate 108 ng/kg/min) was 31.3% and the “Heart Rate Change from Baseline” value (healthy subjects; infusion rate 144 ng/kg/min) was 21.2 bpm. For the same substance, the “Heart Rate Percent Change from Baseline” value (healthy subjects; infusion rate 144 ng/kg/min) was 34.3%, the level at 1 h (in vivo; 0.22 ng/kg/min) was 0.0412 ± 0.0149 ng/mL and the level at time molar at 1 h (in vivo; 0.22 ng/kg/min) was 0.0094 ± 0.0034 nM. For the same substance, the level at 1 h (in vivo; 0.43 ng/kg/min) was 0.0372 ± 0.0139 ng/mL, the level at time molar at 1 h (in vivo; 0.43 ng/kg/min) was 0.0085 ± 0.0032 nM and the level at 1 h (in vivo; 2.2 ng/kg/min) was 0.141 ± 0.0182 ng/mL. It also gave a level at time molar at 1 h (in vivo; 2.2 ng/kg/min) of 0.0324 ± 0.0042 nM, a level at 1 h (in vivo; 4.3 ng/kg/min) of 0.178 ± 0.0211 ng/mL and a level at 2 h (in vivo; 4.3 ng/kg/min) of 0.249 ± 0.0479 ng/mL. The level at time molar at 1 h (in vivo; 4.3 ng/kg/min) was 0.0408 ± 0.0048 nM, the level at time molar at 2 h (in vivo; 4.3 ng/kg/min) was 0.057 ± 0.011 nM and the level at 1 h (in vivo; 7.3 ng/kg/min) was 0.279 ± 0.0296 ng/mL. The level at time molar at 1 h (in vivo; 7.3 ng/kg/min) was 0.0639 ± 0.0068 nM, the “upper limit of plasma concentration” value (male dogs; dog, in vivo) was 12.0 ng/mL and the safety margin (male dogs; expected Cpss at 0.1 ng/kg/min versus upper limit in dogs) was 1,390 fold. For the same substance, the NOAEL (male dogs; male dogs) was 33.3 ng/kg/min.
